Reference: article PMC7321404, “Isolation of Isocoumarins and Flavonoids as α-Glucosidase Inhibitors from Agrimonia pilosa L” (Molecules, 2020)
Read-outs that look alike come from different tables or passages of the source.

How the values were obtained:
[1] = target: T1, α-glucosidase (Saccharomyces cerevisiae, UniProt P53341); assay: AGI kinetic analysis (Lineweaver–Burk plots); format: biochemical
Experimental: Four isocoumarins 1–4 and four flavonoids 5–8 were identified from the APE fraction, and AGI kinetic analyses were performed. During the reaction, α-glucosidase (0.76 unit/mL in 100-mmol phosphate buffer [pH 6.9]) activity was inhibited by the compounds (I) in the presence of the substrate (4-mmol p-nitrophenyl-α-D-glucopyranoside in 100-mmol phosphate buffer [pH 6.9]). The inhibition modes (competitive, uncompetitive, non-competitive, or mixed) of isocoumarins 1–4 and flavonoids 5–8 were examined using nonlinear regression Michaelis–Menten enzyme kinetics. The Lineweaver–Burk plot methods were used to determine kinetic parameters at increasing substrate and compound concentrations, and the parameters were calculated using a nonlinear regression program (Sigma Plot; SPCC Inc., Chicago, IL, USA). The obtained results represent three independent experiments.

[2] = target: T1, α-glucosidase; conditions: has been reported; cited from earlier work

T1 sequence (P53341 whole entry): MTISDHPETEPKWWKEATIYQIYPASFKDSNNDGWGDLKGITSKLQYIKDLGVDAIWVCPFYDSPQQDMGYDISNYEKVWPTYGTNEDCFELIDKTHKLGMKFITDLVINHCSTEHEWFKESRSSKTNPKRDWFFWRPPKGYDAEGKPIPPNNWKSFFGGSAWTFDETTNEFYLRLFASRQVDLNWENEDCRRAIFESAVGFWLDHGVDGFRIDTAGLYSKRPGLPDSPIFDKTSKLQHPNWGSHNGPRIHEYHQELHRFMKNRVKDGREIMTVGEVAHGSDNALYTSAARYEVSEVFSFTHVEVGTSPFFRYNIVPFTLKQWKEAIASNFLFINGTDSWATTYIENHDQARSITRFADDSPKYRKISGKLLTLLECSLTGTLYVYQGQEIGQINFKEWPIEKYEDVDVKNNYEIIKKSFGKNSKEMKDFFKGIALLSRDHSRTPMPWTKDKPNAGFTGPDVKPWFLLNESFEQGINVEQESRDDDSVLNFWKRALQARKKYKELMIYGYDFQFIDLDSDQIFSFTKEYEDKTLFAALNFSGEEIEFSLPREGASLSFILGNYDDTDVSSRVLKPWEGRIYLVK

Compound | Inhibition Mode [1] | Inhibition Mode [2]
COc1ccc(CCC2Cc3cc(O)cc(O)c3C(=O)O2)cc1 (stereo not drawn) [Compound 1, agrimonolide] | Non-competitive | –
O=C1OC(CCc2ccc(O)cc2)Cc2cc(O)cc(O)c21 (stereo not drawn) [Compound 3, desmethylagrimonolide] | Non-competitive | –
O=c1c(O)c(-c2ccc(O)c(O)c2)oc2cc(O)cc(O)c12 [Compound 6, quercetin] | – | competitive
